In PMC6116672, “Discovery of (phenylureido)piperidinyl benzamides as prospective inhibitors of bacterial autolysin E from Staphylococcus aureus” (Journal of Enzyme Inhibition and Medicinal Chemistry, 2018):

Biological target: AtlE (Staphylococcus aureus, UniProt A0A0H3JT72)
Experiment: SPR binding affinity to AtlE (steady state 1:1 model)
Procedure: SPR experiments were performed using a Biacore T100 (GE Healthcare) equipped with a Series S sensor chip CM5 (GE Healthcare). PBS buffer (67 mM Na2HPO4, 12.5 mM KH2PO4, 70 mM NaCl, 0,05% P20, pH 7.4) was used for immobilisation of the protein. AtlE was produced as previously described[1] and attached to the surface of the chip by amine coupling. The surface of flow cells 1 and 2 was initially activated with a 10-min pulse of a 1:1 mixture of 0.4 M 1-ethyl-3–(3-dimethylaminopropyl)-carbodiimide hydrochloride and 0.1 M N-hydroxysuccinimide, according to manufacturer recommendations. AtlE was diluted into 10 mM sodium acetate buffer, pH 5.8, to a final concentration of 100 µg/mL, and injected twice for 180 s over the second flow cell. Both flow cells were blocked with a 7-min pulse of 1.0 M ethanolamine. The final immobilisation level was about 4100 RU. Screening was run at 25 °C using PBS (67 mM Na2HPO4, 12.5 mM KH2PO4 pH 7.4, 70 mM NaCl, 0.05% P20) supplemented with 1% or 5% DMSO (Merck) as the running buffer. Selected compounds from the virtual screening studies were tested at two different concentrations: 40 and 400 µM. Each compound was injected for 1 min at a flow-rate of 30 µL/min, and the dissociation was monitored for 30 s. […] KD values were determined by fitting of the data to a 1:1 steady state binding model.

Sequence of AtlE (A0A0H3JT72 entry or part of it): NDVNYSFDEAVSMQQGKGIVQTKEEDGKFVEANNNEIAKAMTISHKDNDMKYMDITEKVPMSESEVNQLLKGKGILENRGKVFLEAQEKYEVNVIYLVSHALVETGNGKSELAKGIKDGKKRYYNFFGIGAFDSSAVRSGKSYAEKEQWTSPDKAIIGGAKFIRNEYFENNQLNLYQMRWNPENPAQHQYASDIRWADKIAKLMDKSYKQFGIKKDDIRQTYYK

**Q.** Which Kd does the source give for `O=C(Nc1cccc(Cl)c1)NC1CCN(c2cccc(C(=O)N3CCc4ccccc4C3)c2)CC1` [Compound 10] here?
**A.** Its Kd is 1900 nM.
